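Results reflect a 48-hour exposure of cells in 96-well plates to compound at five concentrations. Abbreviation: GI50, concentration required for 50% inhibition of growth.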 The source made the active and inactive calls. No stated cut-off is given here; in the data, active = GI50 up to about 1.1 µM and inactive = higher.
Legend:
Assay in all cases: inhibition of tumour cell growth, NCI panel, 48 h
PC-3 = test system: PC-3
UACC-62 = test system: UACC-62
K562 = test system: K562
M14 = test system: M14
EKVX = test system: EKVX
T47D = test system: T47D
NCI-H460 = test system: NCI-H460
SF-539 = test system: SF-539
MDA-N = test system: MDA-N
NCI-H23 = test system: NCI-H23
SN12C = test system: SN12C
MCF7 = test system: MCF7
RXF 393 = test system: RXF 393
MOLT-4 = test system: MOLT-4
MDA-MB-231 = test system: MDA-MB-231
HT-29 = test system: HT-29
SW-620 = test system: SW-620
UO-31 = test system: UO-31
786-0 = test system: 786-0
DU-145 = test system: DU-145
CCRF-CEM = test system: CCRF-CEM
SK-MEL-28 = test system: SK-MEL-28
RPMI-8226 = test system: RPMI-8226
NCI-H226 = test system: NCI-H226
COLO 205 = test system: COLO 205
HCC 2998 = test system: HCC 2998
A549 = test system: A549
OVCAR-4 = test system: OVCAR-4
OVCAR-8 = test system: OVCAR-8
TK-10 = test system: TK-10
MDA-MB-435 = test system: MDA-MB-435
SF-295 = test system: SF-295
ACHN = test system: ACHN
SNB-75 = test system: SNB-75
SK-MEL-5 = test system: SK-MEL-5
NCI/ADR-RES = test system: NCI/ADR-RES
U-251 = test system: U-251
SF-268 = test system: SF-268
A498 = test system: A498
OVCAR-3 = test system: OVCAR-3
Malme-3M = test system: Malme-3M
Hs-578T = test system: Hs-578T
BT-549 = test system: BT-549
HCT-15 = test system: HCT-15
HOP-62 = test system: HOP-62
UACC-257 = test system: UACC-257
LOX IMVI = test system: LOX IMVI
CAKI-1 = test system: CAKI-1
KM12 = test system: KM12
SK-MEL-2 = test system: SK-MEL-2
SNB-19 = test system: SNB-19
SR = test system: SR
HL-60 = test system: HL-60
HCT-116 = test system: HCT-116
HOP-92 = test system: HOP-92
SK-OV-3 = test system: SK-OV-3
NCI-H522 = test system: NCI-H522
IGROV-1 = test system: IGROV-1
OVCAR-5 = test system: OVCAR-5

## CC(C)(C)c1ccc(-c2nnc(SCc3ccc(Cl)cc3)n2-c2cccc(C(F)(F)F)c2)cc1
PC-3
  GI50: 6.98 µM (inactive)
UACC-62
  GI50: 22.5 µM (inactive)
K562
  GI50: 4.25 µM (inactive)
M14
  GI50: 15 µM (inactive)
EKVX
  GI50: 8.51 µM (inactive)
T47D
  GI50: 5.08 µM (inactive)
NCI-H460
  GI50: 7.23 µM (inactive)
SF-539
  GI50: 54.8 µM (inactive)
MDA-N
  GI50: 24.2 µM (inactive)
NCI-H23
  GI50: 10.9 µM (inactive)
SN12C
  GI50: 4.24 µM (inactive)
MCF7
  GI50: 5.65 µM (inactive)
RXF 393
  GI50: 8.91 µM (inactive)
MOLT-4
  GI50: 3.78 µM (inactive)
MDA-MB-231
  GI50: > 69 µM (inactive)
HT-29
  GI50: 5.47 µM (inactive)
SW-620
  GI50: 15.9 µM (inactive)
UO-31
  GI50: 11.6 µM (inactive)
786-0
  GI50: 13.9 µM (inactive)
DU-145
  GI50: > 85.3 µM (inactive)
CCRF-CEM
  GI50: 7.87 µM (inactive)
SK-MEL-28
  GI50: > 78.9 µM (inactive)
RPMI-8226
  GI50: 4.61 µM (inactive)
NCI-H226
  GI50: 19.7 µM (inactive)
COLO 205
  GI50: 8.83 µM (inactive)
HCC 2998
  GI50: 11.2 µM (inactive)
A549
  GI50: 7.64 µM (inactive)
OVCAR-4
  GI50: 7.8 µM (inactive)
OVCAR-8
  GI50: 15.6 µM (inactive)
TK-10
  GI50: 39.4 µM (inactive)
MDA-MB-435
  GI50: 11.9 µM (inactive)
SF-295
  GI50: 8.43 µM (inactive)
ACHN
  GI50: 20.3 µM (inactive)
SNB-75
  GI50: 27.5 µM (inactive)
SK-MEL-5
  GI50: 14 µM (inactive)
NCI/ADR-RES
  GI50: 12.4 µM (inactive)
U-251
  GI50: 8.85 µM (inactive)
SF-268
  GI50: 25 µM (inactive)
A498
  GI50: 31.1 µM (inactive)
OVCAR-3
  GI50: 1.87 µM (inactive)
Malme-3M
  GI50: 29.4 µM (inactive)
Hs-578T
  GI50: 45.8 µM (inactive)
BT-549
  GI50: > 93.3 µM (inactive)
HCT-15
  GI50: 8.73 µM
HOP-62
  GI50: 34.3 µM (inactive)
UACC-257
  GI50: 9.95 µM (inactive)
LOX IMVI
  GI50: 31.3 µM (inactive)
CAKI-1
  GI50: 73.5 µM (inactive)
KM12
  GI50: 8.2 µM (inactive)
SK-MEL-2
  GI50: 16.8 µM (inactive)
SNB-19
  GI50: 36.1 µM (inactive)
SR
  GI50: 5.82 µM (inactive)
HL-60
  GI50: 0.0867 µM (active)
HCT-116
  GI50: 4.71 µM (inactive)
HOP-92
  GI50: 19.8 µM (inactive)
SK-OV-3
  GI50: 8.32 µM (inactive)
NCI-H522
  GI50: 4.39 µM (inactive)
IGROV-1
  GI50: 26.9 µM (inactive)
OVCAR-5
  GI50: 32.8 µM (inactive)

## O=[N+]([O-])c1ccc(O)c(/C=N/NC(=S)N2CCCCC2)c1
PC-3
  GI50: 7.48 µM (inactive)
UACC-62
  GI50: 3.3 µM (inactive)
K562
  GI50: 4.95 µM (inactive)
M14
  GI50: 3.81 µM (inactive)
EKVX
  GI50: 2.42 µM (inactive)
T47D
  GI50: 6.18 µM (inactive)
NCI-H460
  GI50: 4.81 µM (inactive)
SF-539
  GI50: 6.82 µM (inactive)
MDA-N
  GI50: 8.26 µM (inactive)
NCI-H23
  GI50: 3.61 µM (inactive)
SN12C
  GI50: 3.13 µM (inactive)
MCF7
  GI50: 4.55 µM (inactive)
RXF 393
  GI50: 6.05 µM (inactive)
MOLT-4
  GI50: 1.34 µM (inactive)
MDA-MB-231
  GI50: 5.89 µM (inactive)
HT-29
  GI50: 2.33 µM (inactive)
SW-620
  GI50: 3.13 µM (inactive)
UO-31
  GI50: 0.91 µM (active)
786-0
  GI50: 1.84 µM (inactive)
DU-145
  GI50: 3.83 µM (inactive)
CCRF-CEM
  GI50: 0.728 µM (active)
SK-MEL-28
  GI50: 3.71 µM (inactive)
RPMI-8226
  GI50: 2.79 µM (inactive)
NCI-H226
  GI50: 1.55 µM (inactive)
COLO 205
  GI50: 2.38 µM (inactive)
HCC 2998
  GI50: 7.73 µM (inactive)
A549
  GI50: 9.25 µM (inactive)
OVCAR-4
  GI50: 6.24 µM (inactive)
OVCAR-8
  GI50: 1.8 µM (inactive)
TK-10
  GI50: 4.98 µM (inactive)
MDA-MB-435
  GI50: 7.43 µM (inactive)
SF-295
  GI50: 3.01 µM (inactive)
ACHN
  GI50: 1.84 µM (inactive)
SNB-75
  GI50: 4.22 µM (inactive)
SK-MEL-5
  GI50: 3.7 µM (inactive)
NCI/ADR-RES
  GI50: 1.59 µM (inactive)
U-251
  GI50: 3.53 µM (inactive)
SF-268
  GI50: 2.45 µM (inactive)
A498
  GI50: 9.12 µM (inactive)
OVCAR-3
  GI50: 2.24 µM (inactive)
Malme-3M
  GI50: 1.64 µM (inactive)
Hs-578T
  GI50: 13.8 µM (inactive)
BT-549
  GI50: 6.14 µM (inactive)
HCT-15
  GI50: 1.39 µM
HOP-62
  GI50: 5.74 µM (inactive)
UACC-257
  GI50: 7.16 µM (inactive)
LOX IMVI
  GI50: 1.57 µM (inactive)
CAKI-1
  GI50: 3.51 µM (inactive)
KM12
  GI50: 3.59 µM (inactive)
SK-MEL-2
  GI50: 11.3 µM (inactive)
SNB-19
  GI50: 4.69 µM (inactive)
SR
  GI50: 2.43 µM (inactive)
HL-60
  GI50: 0.282 µM (active)
HCT-116
  GI50: 3.21 µM (inactive)
HOP-92
  GI50: 4.17 µM (inactive)
SK-OV-3
  GI50: 4.8 µM (inactive)
NCI-H522
  GI50: 3.52 µM (inactive)
IGROV-1
  GI50: 1.67 µM (inactive)
OVCAR-5
  GI50: 16 µM (inactive)

## Fc1ccc(OCc2nc3cc(C(F)(F)F)ccc3nc2-c2ccccc2)cc1
PC-3
  GI50: > 100 µM (inactive)
UACC-62
  GI50: > 100 µM (inactive)
K562
  GI50: 3.06 µM (inactive)
M14
  GI50: > 94 µM (inactive)
EKVX
  GI50: > 86.9 µM (inactive)
T47D
  GI50: 62.5 µM (inactive)
NCI-H460
  GI50: > 100 µM (inactive)
SF-539
  GI50: > 100 µM (inactive)
MDA-N
  GI50: > 100 µM (inactive)
NCI-H23
  GI50: > 100 µM (inactive)
SN12C
  GI50: > 100 µM (inactive)
MCF7
  GI50: 67.8 µM (inactive)
RXF 393
  GI50: > 100 µM (inactive)
MOLT-4
  GI50: 13.2 µM (inactive)
MDA-MB-231
  GI50: > 100 µM (inactive)
HT-29
  GI50: 21.4 µM (inactive)
SW-620
  GI50: > 100 µM (inactive)
UO-31
  GI50: > 100 µM (inactive)
786-0
  GI50: > 100 µM (inactive)
DU-145
  GI50: > 100 µM (inactive)
CCRF-CEM
  GI50: > 44.1 µM (inactive)
SK-MEL-28
  GI50: > 100 µM (inactive)
RPMI-8226
  GI50: 46.6 µM (inactive)
NCI-H226
  GI50: > 100 µM (inactive)
COLO 205
  GI50: > 100 µM (inactive)
HCC 2998
  GI50: 99.5 µM (inactive)
A549
  GI50: > 100 µM (inactive)
OVCAR-4
  GI50: 92 µM (inactive)
OVCAR-8
  GI50: > 100 µM (inactive)
MDA-MB-435
  GI50: > 63.8 µM (inactive)
SF-295
  GI50: > 100 µM (inactive)
ACHN
  GI50: > 100 µM (inactive)
SNB-75
  GI50: > 100 µM (inactive)
SK-MEL-5
  GI50: 29.7 µM (inactive)
NCI/ADR-RES
  GI50: 98.2 µM (inactive)
U-251
  GI50: > 100 µM (inactive)
SF-268
  GI50: > 100 µM (inactive)
A498
  GI50: > 100 µM (inactive)
OVCAR-3
  GI50: > 100 µM (inactive)
Malme-3M
  GI50: > 58.9 µM (inactive)
Hs-578T
  GI50: > 81.7 µM (inactive)
BT-549
  GI50: > 46.1 µM (inactive)
HCT-15
  GI50: > 66.2 µM
HOP-62
  GI50: > 100 µM (inactive)
UACC-257
  GI50: > 23.8 µM (inactive)
LOX IMVI
  GI50: > 100 µM (inactive)
CAKI-1
  GI50: > 100 µM (inactive)
KM12
  GI50: > 100 µM (inactive)
SK-MEL-2
  GI50: > 100 µM (inactive)
SNB-19
  GI50: > 83 µM (inactive)
SR
  GI50: 41.9 µM (inactive)
HL-60
  GI50: > 47 µM (inactive)
HCT-116
  GI50: 99.5 µM (inactive)
HOP-92
  GI50: > 45.3 µM (inactive)
NCI-H522
  GI50: 28.4 µM (inactive)
IGROV-1
  GI50: > 100 µM (inactive)
OVCAR-5
  GI50: > 100 µM (inactive)

From ChEMBL document CHEMBL1201862, “PubChem BioAssay data set” (2004)
